Measured values as given in article PMC4053376, “Characterization of the Xiamenmycin Biosynthesis Gene Cluster in Streptomyces xiamenensis 318” (PLoS ONE, 2014).

What was measured:
XimB = molecular target: T1, XimB (Streptomyces xiamenensis, UniProt U5PZQ3); assay: membrane fraction, product […] by UPLC-Q-TOF-MS; format: biochemical; conditions: 0.3 mM GPP, 0.5 mM 4HB, 5 mM MgSO4, 50 mM Tris-HCl pH 7.5, 30 °C
T1 construct: full-length 313 aa; N-terminal His tag, pET28a, E. coli BL21(DE3) membrane fraction; twelve predicted transmembrane helices
T1 sequence (U5PZQ3 1-313): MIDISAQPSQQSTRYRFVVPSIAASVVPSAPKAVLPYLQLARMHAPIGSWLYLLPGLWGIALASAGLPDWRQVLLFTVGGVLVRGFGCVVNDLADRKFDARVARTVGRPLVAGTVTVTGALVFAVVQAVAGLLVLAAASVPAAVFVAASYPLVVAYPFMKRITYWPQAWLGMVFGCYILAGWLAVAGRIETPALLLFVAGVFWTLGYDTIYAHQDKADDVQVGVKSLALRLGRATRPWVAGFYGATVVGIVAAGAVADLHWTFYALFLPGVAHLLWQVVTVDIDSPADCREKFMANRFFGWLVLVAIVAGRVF

XimC = molecular target: T2, XimC (Streptomyces xiamenensis, UniProt U5Q2Q4); assay: product 4HB by GC-MS; format: biochemical; conditions: 50 mM Tris-HCl pH 7.5, 30 °C, 30 min
T2 construct: full-length 196 aa; N-terminal His6 tag, pET28a, E. coli BL21(DE3), Ni-NTA purified
T2 sequence (U5Q2Q4 entry or part of it): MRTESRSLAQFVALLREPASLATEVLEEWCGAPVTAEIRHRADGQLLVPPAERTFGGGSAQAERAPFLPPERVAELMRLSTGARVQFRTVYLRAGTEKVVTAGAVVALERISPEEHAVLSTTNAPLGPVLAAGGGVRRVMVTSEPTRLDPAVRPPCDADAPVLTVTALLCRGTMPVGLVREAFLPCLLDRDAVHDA

| SMILES | membrane fraction, product 2 by UPLC-Q-TOF-MS (XimB) | product 4HB by GC-MS (XimC) |
| --- | --- | --- |
| CC(C)=CCC/C(C)=C/COP(=O)(O)OP(=O)(O)O [geranyl diphosphate] | membrane fraction containing XimB was incubated with 4HB and GPP |  |
| C=C(O[C@@H]1C=C(C(=O)O)C=C[C@H]1O)C(=O)O [chorismate] |  | incubated with chorismate, the formation of 4HB was observed and confirmed by GC-MS |
| O=C(O)c1ccc(O)cc1 [4-hydroxybenzoic acid] | membrane fraction containing XimB was incubated with 4HB and GPP |  |
